Results from US7354734B2, “Fungal proteins and nucleic acids encoding same” (priority 2003, dated 2008).
Entries after “also recorded” stand apart in the source; their conditions may differ. Like-named read-outs stand apart in the source and are kept apart here.

Key:
ruLAP1 = ruLAP1 (Trichophyton rubrum, UniProt Q5QHG5); format: biochemical; conditions: for effect of inhibitor on ruLAP1 activity: Leu-AMC 5 mM
ruLAP2 = ruLAP2 (Trichophyton rubrum, UniProt Q5QHG6); format: biochemical; conditions: for effect of inhibitor on ruLAP2 activity: Leu-AMC 5 mM; for ruLAP2 activity as percentage of control reaction without inhibitor: Leu-MCA substrate, 15 min pre-incubation
fuLAP1 = fuLAP1 (Aspergillus fumigatus, UniProt Q5VJG6); assay: biochemical; format: biochemical; conditions: for effect of inhibitor on fuLAP1 activity: Leu-AMC 5 mM
fuLAP2 = format: biochemical, Aspergillus fumigatus; conditions: for effect of inhibitor on fuLAP2 activity: Leu-AMC 5 mM; for fuLAP2 activity as percentage of control reaction without inhibitor: Leu-MCA substrate, 15 min pre-incubation
[1] = target: T1, pkLAP (microsomal LAP from porcine kidney) (Sus scrofa, UniProt P15145); assay: Effect of inhibitors and metallic cations on LAP activity (Leu-AMC); format: biochemical
T1 construct: purchased Sigma; host or cells: porcine kidney
T1 sequence (P15145 1-963): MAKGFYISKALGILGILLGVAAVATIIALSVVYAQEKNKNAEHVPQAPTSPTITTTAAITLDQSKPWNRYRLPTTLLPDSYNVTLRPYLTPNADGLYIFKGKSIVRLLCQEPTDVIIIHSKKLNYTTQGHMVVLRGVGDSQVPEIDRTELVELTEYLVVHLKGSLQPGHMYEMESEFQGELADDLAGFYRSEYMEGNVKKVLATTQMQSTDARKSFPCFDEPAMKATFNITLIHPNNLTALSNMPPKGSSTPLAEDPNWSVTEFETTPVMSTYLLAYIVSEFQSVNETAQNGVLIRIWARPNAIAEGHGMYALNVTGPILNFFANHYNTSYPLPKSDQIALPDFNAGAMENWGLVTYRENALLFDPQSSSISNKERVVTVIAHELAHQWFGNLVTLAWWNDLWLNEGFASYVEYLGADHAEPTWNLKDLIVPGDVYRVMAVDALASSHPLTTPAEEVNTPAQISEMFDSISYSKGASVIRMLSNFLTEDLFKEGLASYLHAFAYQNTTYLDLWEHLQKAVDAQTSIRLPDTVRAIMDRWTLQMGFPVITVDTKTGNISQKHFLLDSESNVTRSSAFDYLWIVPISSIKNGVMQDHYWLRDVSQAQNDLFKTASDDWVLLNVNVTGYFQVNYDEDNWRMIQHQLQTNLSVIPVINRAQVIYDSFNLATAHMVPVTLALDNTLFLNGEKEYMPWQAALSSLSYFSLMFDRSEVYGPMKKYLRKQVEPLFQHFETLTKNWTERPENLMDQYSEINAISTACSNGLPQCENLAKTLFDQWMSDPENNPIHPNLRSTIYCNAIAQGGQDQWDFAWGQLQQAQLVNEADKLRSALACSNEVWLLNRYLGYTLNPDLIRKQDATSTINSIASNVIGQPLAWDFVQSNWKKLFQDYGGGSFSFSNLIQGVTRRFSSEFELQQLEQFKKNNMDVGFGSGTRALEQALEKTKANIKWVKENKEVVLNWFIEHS

[2] = system: gliadin 33mer (fragment 57-89 of gliadin MM1); assay: Digestion of gliadin 33mer (RP-HPLC, ESI-MS); format: biochemical, wheat; conditions: for digestion of gliadin 33mer, enzyme alone: 37° C.
[3] = format: biochemical
[4] = format: biochemical; conditions: substrate Lys(Abz)Pro-PropNA 5 mM, 37° C., 60 min
[5] = inhibitor 500 μM, Leu-MCA substrate, 15 min pre-incubation, read-out: fuLAP1 activity as percentage of control reaction without inhibitor
[6] = inhibitor 1 mM, Leu-MCA substrate, 15 min pre-incubation
[7] = inhibitor 5 mM, Leu-MCA substrate, 15 min pre-incubation
[8] = inhibitor 500 μM, Leu-MCA substrate, 15 min pre-incubation

ruLAP1, sequence (Q5QHG5 21-373): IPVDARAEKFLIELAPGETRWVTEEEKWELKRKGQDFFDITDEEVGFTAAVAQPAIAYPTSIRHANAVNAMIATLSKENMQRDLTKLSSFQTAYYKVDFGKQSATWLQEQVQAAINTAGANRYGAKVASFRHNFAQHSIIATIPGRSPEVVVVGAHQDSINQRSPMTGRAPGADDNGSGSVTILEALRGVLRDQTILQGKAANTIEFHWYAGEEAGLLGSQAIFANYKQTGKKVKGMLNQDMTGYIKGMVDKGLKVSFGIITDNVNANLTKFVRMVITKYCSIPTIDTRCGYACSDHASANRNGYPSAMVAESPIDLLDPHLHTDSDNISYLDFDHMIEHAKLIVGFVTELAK
ruLAP2, sequence (Q5QHG6 20-495): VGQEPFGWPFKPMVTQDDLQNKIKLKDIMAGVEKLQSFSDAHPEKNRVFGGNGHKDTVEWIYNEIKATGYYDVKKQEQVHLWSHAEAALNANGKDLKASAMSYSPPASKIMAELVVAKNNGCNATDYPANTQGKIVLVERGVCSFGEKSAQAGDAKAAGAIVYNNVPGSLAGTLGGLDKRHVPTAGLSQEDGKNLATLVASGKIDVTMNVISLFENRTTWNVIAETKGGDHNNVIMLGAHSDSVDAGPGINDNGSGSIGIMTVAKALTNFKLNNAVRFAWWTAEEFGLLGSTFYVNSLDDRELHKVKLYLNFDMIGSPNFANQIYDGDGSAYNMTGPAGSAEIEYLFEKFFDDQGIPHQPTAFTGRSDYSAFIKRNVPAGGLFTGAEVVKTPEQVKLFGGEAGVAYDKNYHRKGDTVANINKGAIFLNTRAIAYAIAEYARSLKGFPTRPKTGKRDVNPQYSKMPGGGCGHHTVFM

## CC(C)C[C@@H](N)[C@H](O)C(=O)N[C@H](C(=O)N[C@H](C(=O)N[C@@H](CC(=O)O)C(=O)O)C(C)C)C(C)C [amastatin]
ruLAP1
  effect of inhibitor on ruLAP1 activity: strongly or totally inhibited
ruLAP2
  effect of inhibitor on ruLAP2 activity: strongly or totally inhibited
fuLAP1
  effect of inhibitor on fuLAP1 activity: strongly or totally inhibited
fuLAP1; [5]
  remaining activity at 500 µM: 17%
fuLAP2
  effect of inhibitor on fuLAP2 activity: strongly or totally inhibited
fuLAP2; inhibitor 500 μM
  fuLAP2 activity as percentage of control reaction without inhibitor: 0%
[1]
  effect of inhibitor on pkLAP activity: strongly or totally inhibited
[1]; read-out: pkLAP activity as percentage of control reaction without inhibitor
  remaining activity at 500 µM: 0%

## N=C(N)c1ccccc1 [benzamidine]
ruLAP1
  effect of inhibitor on ruLAP1 activity: no clear inhibitory effects
ruLAP2
  effect of inhibitor on ruLAP2 activity: no clear inhibitory effects
fuLAP1
  effect of inhibitor on fuLAP1 activity: no clear inhibitory effects
fuLAP1; inhibitor 40 μM, Leu-MCA substrate, 15 min pre-incubation, read-out: fuLAP1 activity as percentage of control reaction without inhibitor
  remaining activity at 40 µM: 77%
fuLAP2
  effect of inhibitor on fuLAP2 activity: no clear inhibitory effects
fuLAP2; inhibitor 40 μM
  fuLAP2 activity as percentage of control reaction without inhibitor: 91%
[1]; Leu-AMC 5 mM
  effect of inhibitor on pkLAP activity: no clear inhibitory effects
[1]; inhibitor 40 μM, Leu-MCA substrate, 15 min pre-incubation, read-out: pkLAP activity as percentage of control reaction without inhibitor
  remaining activity at 40 µM: 75%

## CC(C)C[C@H](NC(=O)[C@@H](O)[C@H](N)Cc1ccccc1)C(=O)O [bestatin]
ruLAP1
  effect of inhibitor on ruLAP1 activity: inhibited
ruLAP2
  effect of inhibitor on ruLAP2 activity: partial inhibitory effect
fuLAP1
  effect of inhibitor on fuLAP1 activity: inhibited
fuLAP1; [5]
  remaining activity at 500 µM: 11%
fuLAP2
  effect of inhibitor on fuLAP2 activity: partial inhibitory effect
fuLAP2; inhibitor 500 μM
  fuLAP2 activity as percentage of control reaction without inhibitor: 88%
[1]; Leu-AMC 5 mM
  effect of inhibitor on pkLAP activity: inhibited
[1]; inhibitor 500 μM, Leu-MCA substrate, 15 min pre-incubation, read-out: pkLAP activity as percentage of control reaction without inhibitor
  remaining activity at 500 µM: 24%

## c1cnc2c(c1)ccc1cccnc12 [orthophenanthroline]
ruLAP1; [6]
  ruLAP1 activity as percentage of control reaction without inhibitor: 0%
ruLAP1; [7]
  ruLAP1 activity as percentage of control reaction without inhibitor: 0%
ruLAP2; inhibitor 1 mM
  ruLAP2 activity as percentage of control reaction without inhibitor: 0%
ruLAP2; inhibitor 5 mM
  ruLAP2 activity as percentage of control reaction without inhibitor: 0%
fuLAP1; [6]
  fuLAP1 activity as percentage of control reaction without inhibitor: 0%
fuLAP1; [7]
  fuLAP1 activity as percentage of control reaction without inhibitor: 0%
fuLAP2; inhibitor 1 mM
  fuLAP2 activity as percentage of control reaction without inhibitor: 0%
fuLAP2; inhibitor 5 mM
  fuLAP2 activity as percentage of control reaction without inhibitor: 0%
[1]; [6]
  pkLAP activity as percentage of control reaction without inhibitor: 0%
[1]; [7]
  pkLAP activity as percentage of control reaction without inhibitor: 0%

## O=C(O)c1cc[c]([Hg][Cl])cc1 [p-chloromercuribenzoate, p-chloromercuribenzoic acid]
ruLAP1; 500 µM
  ruLAP1 activity as percentage of control reaction without inhibitor: 32%
ruLAP2
  effect of inhibitor on ruLAP2 activity: blunted the activity
ruLAP2; inhibitor 500 μM
  ruLAP2 activity as percentage of control reaction without inhibitor: 21%
fuLAP1; [8]
  fuLAP1 activity as percentage of control reaction without inhibitor: 90%
fuLAP2; inhibitor 500 μM
  fuLAP2 activity as percentage of control reaction without inhibitor: 96%
[1]; [8]
  pkLAP activity as percentage of control reaction without inhibitor: 59%

## Chymotrypsin
[2]
  digestion of the peptide, with addition of ruLAP2: not able to breakdown
  digestion of gliadin 33mer, enzyme alone: not able to breakdown
[2]; same conditions, E/S (w:w) 1:50
  digestion of the peptide, with addition of DPPIV: not able to breakdown

B1: fuLAP1: A. fumigatus leucine aminopeptidase, 388 amino acid residues (SEQ ID NO: 12) (protein, listed as Aspergillus fumigatus)
chain: MKVLTAIALSAIAFTGAVAAVITQEAFLNNPRIHHDQEKYLIELAPYRTRWVTEEEKWALKLDGVNFIDITEEHNTGFYPTLHSASYVKYPPKMQYAEEVAALNKNLSKENMKANLERFTSFHTRYYKSQTGIRSATWLFDQVQRVVSESGAAEYGATVERFSHPWGQFSIIARIPGRTNKTVVLGAHQDSINLFLPSILAAPGADDDGSGTVTILEALRGLLQSDAIAKGNASNTVEFHWYSAEEGGMLGSQAIFSNYKRNRREIKAMLQQDMTGYVQGALNAGVEEAIGIMVDYVDQGLTQFLKDVVTAYCSVGYLETKCGYACSDHTSASKYGYPAAMATEAEMENTNKKIHTTDDKIKYLSFDHMLEHAKLSLGFAFELAFAPF
[3]; compared to Leu-AMC
  hydrolytic activity toward Arg-AMC: appreciated
  hydrolytic activity toward Phe-AMC: appreciated
  hydrolytic activity toward Val-AMC: appreciated
[3]; substrate Ala-AMC 5 mM, 37° C., 60 min
  hydrolytic activity toward Ala-AMC in comparison to Leu-MCA used as a standard: 4.7%
[3]; substrate Arg-AMC 5 mM, 37° C., 60 min
  hydrolytic activity toward Arg-AMC in comparison to Leu-MCA used as a standard: 53.9%
[3]; substrate Asn-AMC 5 mM, 37° C., 60 min
  hydrolytic activity toward Asn-AMC in comparison to Leu-MCA used as a standard: 29.4%
[3]; substrate Asp-AMC 5 mM, 37° C., 60 min
  hydrolytic activity toward Asp-AMC in comparison to Leu-MCA used as a standard: 0.8%
[3]; substrate Cys-AMC 5 mM, 37° C., 60 min
  hydrolytic activity toward Cys-AMC in comparison to Leu-MCA used as a standard: 5.0%
[3]; substrate Gln-AMC 5 mM, 37° C., 60 min
  hydrolytic activity toward Gln-AMC in comparison to Leu-MCA used as a standard: 44.9%
[3]; substrate Glu-AMC 5 mM, 37° C., 60 min
  hydrolytic activity toward Glu-AMC in comparison to Leu-MCA used as a standard: 0.0%
[3]; substrate Gly-AMC 5 mM, 37° C., 60 min
  hydrolytic activity toward Gly-AMC in comparison to Leu-MCA used as a standard: 0.8%
[3]; substrate Gly-Pro-AMC 5 mM, 37° C., 60 min
  hydrolytic activity toward Gly-Pro-AMC in comparison to Leu-MCA used as a standard: 5.4%
[3]; substrate His-AMC 5 mM, 37° C., 60 min
  hydrolytic activity toward His-AMC in comparison to Leu-MCA used as a standard: 0.8%
[3]; substrate Hyp-AMC 5 mM, 37° C., 60 min
  hydrolytic activity toward Hyp-AMC in comparison to Leu-MCA used as a standard: 3.9%
[3]; substrate Ile-AMC 5 mM, 37° C., 60 min
  hydrolytic activity toward Ile-AMC in comparison to Leu-MCA used as a standard: 13.2%
[3]; substrate Leu-AMC
  hydrolysis of Leu-AMC: efficiently hydrolyzed; also recorded: common preference
[3]; substrate Leu-AMC 5 mM, 37° C., 60 min
  hydrolytic activity toward Leu-AMC in comparison to Leu-MCA used as a standard: 100.0%
[3]; substrate Lys-AMC 5 mM, 37° C., 60 min
  hydrolytic activity toward Lys-AMC in comparison to Leu-MCA used as a standard: 7.7%
[3]; substrate Met-AMC 5 mM, 37° C., 60 min
  hydrolytic activity toward Met-AMC in comparison to Leu-MCA used as a standard: 116.9%
[3]; substrate Phe-AMC 5 mM, 37° C., 60 min
  hydrolytic activity toward Phe-AMC in comparison to Leu-MCA used as a standard: 163.7%
[3]; substrate Pro-AMC 5 mM, 37° C., 60 min
  hydrolytic activity toward Pro-AMC in comparison to Leu-MCA used as a standard: 12.0%
[3]; substrate Pyr-AMC 5 mM, 37° C., 60 min
  hydrolytic activity toward Pyr-AMC in comparison to Leu-MCA used as a standard: 0.0%
[3]; substrate Ser-AMC 5 mM, 37° C., 60 min
  hydrolytic activity toward Ser-AMC in comparison to Leu-MCA used as a standard: 10.3%
[3]; substrate Thr-AMC 5 mM, 37° C., 60 min
  hydrolytic activity toward Thr-AMC in comparison to Leu-MCA used as a standard: 5.1%
[3]; substrate Val-AMC 5 mM, 37° C., 60 min
  hydrolytic activity toward Val-AMC in comparison to Leu-MCA used as a standard: 27.6%
[4]
  hydrolytic activity toward Lys(Abz)Pro-PropNA in comparison to Leu-MCA used as a standard: 0.0%

B2: Cytosolic porcine kidney aminopeptidase: cytosolic leucine aminopeptidase from porcine kidney, Sigma (protein, UniProt P28839 1-519, looked up)
Cytosol aminopeptidase: MFLLPLPAAARVAVRQLSVRRFWGPGPDAANMTKGLVLGIYSKEKEDDAPQFTSAGENFDKLVSGKLREILNISGPPLKAGKTRTFYGLHEDFSSVVVVGLGKKGAGVDDQENWHEGKENIRAAVAAGCRQIQDLEIPSVEVDPCGDAQAAAEGAVLGLYEYDELKQKKKVVVSAKLHGSGDQEAWQRGVLFASGQNLARHLMETPANEMTPTRFAEVIEKNLKSASSKTDVHIRPKSWIEEQEMGSFLSVAKGSEEPPVFLEIHYKGSPDASDPPLVFVGKGITFDSGGISIKASANMDLMRADMGGAATICSTIVSAAKLDLPINLVGLAPLCENMPSGKANKPGDVVRAKNGKTIQVDNTDAEGRLILADALCYAHTFNPKVIINAATLTGAMDIALGSGATGVFTNSSWLWNKLFEASIETGDRVWRMPLFEHYTKQIVDCQLADVNNIGKYRSAGACTAAAFLKEFVTHPKWAHLDIAGVMTNKDEVPYLRKGMAGRPTRTLIEFLLRFSQDSA
[2]
  digestion of gliadin 33mer, enzyme alone: totally inactive
